What was measured:
Format in all cases: cell-based
[1] = tested on: Staphylococcus aureus strains; experiment: MBEC (biofilm eradication)
From the text: (§1) In this example the following bacterial strains were used: Staphyllococcus aureus ATCC 25923 obtained from the ATCC collection; Staphyllococcus aureus 074 was kindly provided by prof. Fink, Faculty of Veterinary Medicine, Utrecht University, the Netherlands, described as a clinical isolate from cows with mastitis. Information for the strain is further given in: Melchior, M. B., Fink-Gremmels, J., & Gaastra, W. (2006). Comparative Assessment of the Antimicrobial Susceptibility of Staphylococcus aureus Isolates from Bovine Mastitis in Biofilm Versus Planktonic Culture. Journal of Veterinary Medicine Series B, 53(7), 326-332; Staphyllococcus aureus ATCC 15564 obtained from the ATCC collection and Streptococcus uberis clinical isolate from a cow with mastitis, part from the collection of Department of Veterinary Microbiology, Infectious and Parasitic Diseases, Trakia University, Bulgary.
(§2) Minimum Biofilm Inhibitory Concentration (MBIC) and Microtiter Biofilm Eradication concentration (MBEC) are defined and measured as indicated in table 7.
(§3) Applying the methods as summarised in table 7, the above-mentioned bacteria were tested with PTSO/PTS enriched plant extract, pure PTSO, and pure PTS as described in example 1 and DPD as described in example 2.

[2] = tested on: Streptococcus uberis; experiment: MBEC (biofilm eradication); details: Str. uberis clinical isolate
From the text: as §1, §2, §3

[3] = tested on: heterotrophic microbial biofilm; experiment: Biofilm eradication in PBR (photobioreactor), released CFU's
Procedure: In order to determine the anti-biofilm effect of PTSO, PTS and DPD (dipropyl disulfide), a biofilm was grown under controlled conditions in a glass tube reactor, the PBR. A photobioreactor was used as model system because biofilm formation was clearly visible in the glass tubes. After a mature biofilm was formed, increasing levels of pure PTSO, PTS or DPD were added and the biofilm was removed by titration of pure PTSO, PTS or DPD and the dosages were determined that the biofilm was eradicated. Hereafter, the microbial composition was determined of the biofilm by deep sequencing.
Heterotrophic microbial biofilm: a biofilm was cultivated in a 26.5-liter glass photobioreactor (PBR) with a tube length of 37-meter incl. bends (the GemTube RD-25 Glass of LGEM). The PBR was filled with 22 liters of not sterilized medium (fable 1).
The medium further contained 1 g/l glucose. Inoculation took place by the adding 500 ml ditch water from the Zuidpolder near Delfgauw. Air was pumped in with a rate of 1.0 liter/min: at this setting the medium circulation through the PBR in the medium was as low as possible but there was a stable hold-up to realize medium circulation in the PBR. The PBR was covered with a dark plastic screen to prevent exposure to the light. Incubation took place at 12-18° C. and pH was controlled 5 times per week to 5.2-5.7, once per 1.5 day. After a total dosage of 5 g/l glucose, (after 1 week) a slimy layer (biofilm) was formed that covers the whole inner surface of the glass tube. The medium was replaced by fresh medium without glucose when the biofilm was formed.
Pure PTSO and PTS were obtained as is indicated in example 1 and stable solutions were prepared in water by sonication of 1000× diluted mixtures. DPD (dipropyl disulfide >98% pure) was supplied by Sigma. After each addition step the biofilm culture was incubated for 24 hours to observe the stability of the biofilm.
The numbers of aerobic, anaerobic/micro-aerophilic and fungal CFU's in the biofilm and supernatant were determined according to standard operating procedures as follows: for aerobic colony forming units per ml (CFU/ml) see https://www.iso.org/standard/53728.html; for the determination of anaerobic CFU's/ml see https://www.thermofisher.com/order/catalog/product/AN0025A#HAN0025A (the plates are incubated in an oxygen-free container) and with respect to the numbers of colony forming unites for fungi see http://edgeanalytical.com/wp-content/uploads/Food_AOAC-997.02.pdf (see Table 2).
Another sample of the biofilm was drawn and a part was stored at minus 80 degrees as inoculum material for further studies. The other part of the biofilm was dissolved by gentle sonification and used to determine the aerobic, anaerobic and fungal numbers of colony forming units as described above. Hereafter it was calculated whether the numbers of colony forming microorganisms in the medium corresponded with the number of microorganisms in the biofilm prior to the treatment. In this way it was calculated whether the microorganisms were killed by the treatments, or that the bacteria remained alive and that only the biofilm was solubilized.
In order to investigate whether PTSO has a destabilizing effect of the biofilm or simply kills the microorganisms, samples were drawn from the biofilm before the treatments and samples of the liquid medium were drawn before and after treatment and were inoculated as described above to determine the number of colony forming units. Hereafter it was calculated whether the numbers of colony forming microorganisms in the medium corresponded with the number of microorganisms in the biofilm prior to the treatment. In this way it was calculated whether the microorganisms are killed by the treatments, or that the bacteria remained alive and that only the biofilm was solubilized (fable 6).

[4] = tested on: Staphylococcus aureus strains; experiment: MBIC 90 (minimum biofilm inhibitory concentration)
From the text: as §1, §2, §3

[5] = tested on: Streptococcus uberis; experiment: MBIC 90 (minimum biofilm inhibitory concentration); details: Str. uberis clinical isolate
From the text: as §1, §2, §3

[6] = PTSO cumulative dosage 0.05 ul/l culture (dose 0.05), day 2
[7] = PTSO cumulative dosage 0.15 ul/l culture (dose 0.1), day 6
[8] = PTSO cumulative dosage 0.65 ul/l culture (dose 0.5), day 8
[9] = PTSO cumulative dosage 1.65 ul/l culture (dose 1.0), day 13
[10] = PTSO cumulative dosage 3.65 ul/l culture (dose 2.0), day 15
[11] = after 208 mg pure DPD/liter culture
[12] = total dose DPD (cumulative) 1 ul/l (dose 0.50)
[13] = total dose DPD (cumulative) 2 ul/l (dose 1.00)
[14] = total dose DPD (cumulative) 7 ul/l (dose 5.00)
[15] = total dose DPD (cumulative) 17 ul/l (dose 10.00)
[16] = total dose DPD (cumulative) 67 ul/l (dose 50.00)
[17] = total dose DPD (cumulative) 117 ul/l (dose 50.00)
[18] = total dose DPD (cumulative) 167 ul/l (dose 50.00)
[19] = total dose DPD (cumulative) 217 ul/l (dose 50.00)
[20] = total dose DPD (cumulative) 267 ul/l (dose 50.00)
[21] = total dose DPD (cumulative) 317 ul/l (dose 50.00)
[22] = total dose DPD (cumulative) 367 ul/l (dose 50.00)
[23] = total dose DPD (cumulative) 417 ul/l (dose 50.00)
[24] = total dose DPD (cumulative) 467 ul/l (dose 50.00)
[25] = total dose DPD (cumulative) 517 ul/l (dose 50.00)

CCCSS(=O)(=O)CCC (single isomer, unassigned) [PTSO, propyl-propane thiosulfonate]
MBEC (biofilm eradication) ([1]; St. aureus 074): 256 µg/mL
MBEC (biofilm eradication) ([1]; St. aureus ATCC 15564): 256 µg/mL
MBEC (biofilm eradication) ([1]; St. aureus ATCC 25923): 512 µg/mL
MBEC (biofilm eradication) [2]: 512 µg/mL
Aerobic CFU's after 24 hours [3, 6]: 2,033 ×1000
Anaerobic CFU's after 24 hour [3, 6]: 383 ×1000
Fungal CFU's after 24 hours [3, 6]: 150 ×1000
Aerobic CFU's after 24 hours [3, 7]: 3,367 ×1000
Anaerobic CFU's after 24 hour [3, 7]: 750 ×1000
Fungal CFU's after 24 hours [3, 7]: 150 ×1000
Aerobic CFU's after 24 hours [3, 8]: 6,267 ×1000
Anaerobic CFU's after 24 hour [3, 8]: 1,127 ×1000
Fungal CFU's after 24 hours [3, 8]: 517 ×1000
Aerobic CFU's after 24 hours [3, 9]: 17,333 ×1000
Anaerobic CFU's after 24 hour [3, 9]: 4,400 ×1000
Fungal CFU's after 24 hours [3, 9]: 20,333 ×1000
Aerobic CFU's after 24 hours [3, 10]: 5,867 ×1000
Anaerobic CFU's after 24 hour [3, 10]: 2,933 ×1000
Fungal CFU's after 24 hours [3, 10]: 1,567 ×1000
Total (released from biofilm) colony forming units/ml, In culture supernatant ([3]; after 0.9 mg pure PTSO/liter culture): 42,000 units/ml (×1000)
Total colony forming units/ml, In biofilm ([3]; after 0.9 mg pure PTSO/liter culture, 0* means biofilm had disappeared): 0* units/ml (×1000)
% volume biofilm in relation to culture volume ([3]; after 0.9 mg pure PTSO/liter culture, before start treatment 18): 0%
total dosage at which the biofilm became significantly thinner ([3]; mature biofilm in PBR, visual observation): 0.65 ul/l
total dosage at which disintegration / release of the biofilm becomes visible ([3]; mature biofilm in glass tube PBR, visual observation): 0.05 ul/l
MBIC 90 ([4]; St. aureus 074): 128 µg/mL
MBIC 90 ([4]; St. aureus ATCC 15564): 128 µg/mL
MBIC 90 ([4]; St. aureus ATCC 25923): 128 µg/mL
MBIC 90 [5]: 128 µg/mL

CCCSSCCC [DPD, dipropyl disulfide]
MBEC (biofilm eradication) ([1]; St. aureus 074): 1024 µg/mL
MBEC (biofilm eradication) ([1]; St. aureus ATCC 15564): >1024 µg/mL
MBEC (biofilm eradication) ([1]; St. aureus ATCC 25923): >1024 µg/mL
MBEC (biofilm eradication) [2]: >1024 µg/mL
state of the biofilm at the highest dosages (visual) ([3]; PBR, highest dosage(s) added): did not remove the remainder of the thin biofilm
Total (released from biofilm) colony forming units/ml, In culture supernatant [3, 11]: 3,403 units/ml (×1000)
Total colony forming units/ml, In biofilm [3, 11]: 0 units/ml (×1000)
% volume biofilm in relation to culture volume ([3]; after 208 mg pure DPD/liter culture, before start treatment 7): 0%
total addition at which the biofilm started to release from the glass ([3]; after dose 8, visual observation): 160 mg pure DPD/liter
Aerobic CFU's after 24 hours [3, 12]: 400000 ×1000
Anaerobic CFU's after 24 hour [3, 12]: 45333 ×1000
Fungal CFU's after 24 hours [3, 12]: 33333 ×1000
Aerobic CFU's after 24 hours [3, 13]: 440000 ×1000
Anaerobic CFU's after 24 hour [3, 13]: 43333 ×1000
Fungal CFU's after 24 hours [3, 13]: 29000 ×1000
Aerobic CFU's after 24 hours [3, 14]: 390000 ×1000
Anaerobic CFU's after 24 hour [3, 14]: 43333 ×1000
Fungal CFU's after 24 hours [3, 14]: 35000 ×1000
Aerobic CFU's after 24 hours [3, 15]: 403333 ×1000
Anaerobic CFU's after 24 hour [3, 15]: 39333 ×1000
Fungal CFU's after 24 hours [3, 15]: 25333 ×1000
Aerobic CFU's after 24 hours [3, 16]: 376667 ×1000
Anaerobic CFU's after 24 hour [3, 16]: 40333 ×1000
Fungal CFU's after 24 hours [3, 16]: 24000 ×1000
Aerobic CFU's after 24 hours [3, 17]: 426667 ×1000
Anaerobic CFU's after 24 hour [3, 17]: 37667 ×1000
Fungal CFU's after 24 hours [3, 17]: 22333 ×1000
Aerobic CFU's after 24 hours [3, 18]: 563333 ×1000
Anaerobic CFU's after 24 hour [3, 18]: 43000 ×1000
Fungal CFU's after 24 hours [3, 18]: 18333 ×1000
Aerobic CFU's after 24 hours [3, 19]: 1766667 ×1000
Anaerobic CFU's after 24 hour [3, 19]: 267000 ×1000
Fungal CFU's after 24 hours [3, 19]: 18667 ×1000
Aerobic CFU's after 24 hours [3, 20]: 1413333 ×1000
Anaerobic CFU's after 24 hour [3, 20]: 340000 ×1000
Fungal CFU's after 24 hours [3, 20]: 17000 ×1000
Aerobic CFU's after 24 hours [3, 21]: 936667 ×1000
Anaerobic CFU's after 24 hour [3, 21]: 100000 ×1000
Fungal CFU's after 24 hours [3, 21]: 223333 ×1000
Aerobic CFU's after 24 hours [3, 22]: 163333 ×1000
Anaerobic CFU's after 24 hour [3, 22]: 35667 ×1000
Fungal CFU's after 24 hours [3, 22]: 273333 ×1000
Aerobic CFU's after 24 hours [3, 23]: 107333 ×1000
Anaerobic CFU's after 24 hour [3, 23]: 19333 ×1000
Fungal CFU's after 24 hours [3, 23]: 24333 ×1000
Aerobic CFU's after 24 hours [3, 24]: 103333 ×1000
Anaerobic CFU's after 24 hour [3, 24]: 9333 ×1000
Fungal CFU's after 24 hours [3, 24]: 12667 ×1000
Aerobic CFU's after 24 hours [3, 25]: 98333 ×1000
Anaerobic CFU's after 24 hour [3, 25]: 5467 ×1000
Fungal CFU's after 24 hours [3, 25]: 8000 ×1000
total dosage up to which biofilm release continued ([3]; visual observation): 317 ul pure DPD/liter
MBIC 90 ([4]; St. aureus 074): >1024 µg/mL
MBIC 90 ([4]; St. aureus ATCC 15564): >1024 µg/mL
MBIC 90 ([4]; St. aureus ATCC 25923): >1024 µg/mL
MBIC 90 [5]: >1024 µg/mL

— patent publication US20230000811A1, “COMPOSITIONS FOR DISRUPTING BIOFILM FORMATION AND FOR TREATING BIOFILM-RELATED DISORDERS” (AHV International B.V., priority 2020, published 2023)
